Laboratory results published in patent publication US10828312B2, “Lithium cholesterol compositions, including, but not limited to lithium cholesterol sulfate compositions, and methods of treatment for Alzheimer's disease and neurological disorders” (priority 2018, dated 2020).
“Also recorded” adds a separate entry of the source. Structures can show the parent of a compound that is named as a salt. Where two headings read alike, the source gives them in different places.

Tests used:
[1] = mice; cited from earlier work
[2] = rats; cited from earlier work
[3] = system: AD pathology; details: cited from earlier work
[4] = all liposomes tested; cited from earlier work
[5] = system: GSK3β (Ser9) phosphorylation; test: Inhibitory GSK3β (Ser9) phosphorylation by Western blot in CHO cells; format: cell-based, Chinese Hamster; details: for maximal increase of pGSK3β: 18 h, vs no treatment; for concentration at which increase of pGSK3β starts: 18 h treatment, WB densitometry
Description: (§1) Human neuroblastoma SH-SY5Y cells (ATCC, Manassas, Va.) were cultured in DMEM/Nutrient Mixture F-12 (DMEM/F-12), 10% fetal bovine serum (FBS) and 15 mM HEPES. Chinese Hamster Ovary cells (CHO, Millipore Sigma), human embryonic kidney 293 cells expressing wild-type tau (HEK293/tau cells, ATCC) and mouse BV2 microglial cells (Creative Bioarray, Shirley, N.Y.) were cultured in DMEM with 10% FBS. SH-SY5Y cells and CHO cells were cultured in 24-well plates at a density of 2.5×10^5 cells/well. HEK293/tau cells were cultured in 24-well plates at a density of 3.5×10^5 cells/well, after being treated with Tetracycline (1:1000) for about 24 h to create high and stable cells lines (24).
(§2) Cells were treated with LiCS or NaCS at 0, 5, 10, 20, 40, 60 or 90 μM or LiCl at 0, 0.06, 0.15, 0.3, 0.6, 1.2 and 2.5 mM for 18 hours, followed by washing with ice-cold PBS 3×, lysis with cell lysis buffer and centrifugation at 1.4×10^4 rpm for 20 minutes. The supernatants were then used for analysis of GSK3β (Ser) and tau (Thr^231) phosphorylation by Western Blot (WB) and WB bands were calculated by Image J software (Java 1.6.0_20, NIH, USA).

[6] = system: GSK3β (Ser9) phosphorylation; test: Inhibitory GSK3β (Ser9) phosphorylation by Western blot in SH-SY5Y cells; format: cell-based, Human; details: for maximal increase of pGSK3β: 18 h; for concentration at which increase of pGSK3β starts: 18 h treatment, WB densitometry
Description: as §1, §2

[7] = system: GSK3β (Ser9) phosphorylation; test: Inhibitory GSK3β (Ser9) phosphorylation and total GSK3β by Western blot, statements covering both CHO and SH-SY5Y cells; format: cell-based; details: for effect on total GSK3β levels: any dose; for concentration at which increase of pGSK3β starts / maximal increase of pGSK3β: both CHO and SH-SY5Y cells (summary)
Description: as §1, §2

[8] = system: tau (Thr231) phosphorylation; test: Tau (Thr231) phosphorylation by Western blot in HEK293/tau cells; format: cell-based, human; details: for effect on total tau levels: any dose
Description: as §1, §2

[9] = system: LPS-induced TNFα; format: cell-based, mouse; details: for concentration at which decrease of LPS-induced TNFα starts: LPS 100 ng/ml, 3 h
[10] = Lithium levels in blood plasma, brain, kidney and liver of mice after oral gavage (lithium ELISA); format: in vivo, C57BL/6J male mice
Description: C57BL/6J male mice at 4 months of age were treated with LiCl or LiCS at 0.04 mmol lithium/mouse p.o by gavage, followed by determination of lithium levels in blood plasma, brain, kidney and liver at 0.5, 1, 2, 3, 5 and 24 h after gavage by ELISA (N=2 mice/time point).
At 0.5, 1, 2, 3, 5 and 24 h after treating mice with LiCl or LiCS p.o. by gavage, mice were anesthetized with isoflourane (50 mg/kg) (Sigma-Aldrich), euthanized by bilateral thoracotomy, and blood was collected. Brain, kidney, and liver were harvested, homogenized in 400 μL ddH2O with Minilys tissue homogenizer (Bertin Technologies, Montigny-le-Bretonneux, France), and centrifuged for 30 min. Lithium levels in plasma and supematants from brain, kidney, and liver homogenates were determined by ELISA (Biovision, Milpitas, Calif.) following the manufacturer's instructions. Plasma, brain, kidney and liver homogenates from control mice were used to generate standard curve.

[11] = system: autistic features; details: 2 mmol/kg i.p./day, Sprague-Dawley rats; cited from earlier work
[12] = rats; cited from earlier work; remark: listed apart in the source
[13] = long term oral administration, Tg2576 and 3XTg AD mice
[14] = 0.04 mmol lithium/mouse p.o., 0.5 and 5 h after gavage
[15] = NaCS at any dose between 5 and 90 μM, sulfate

For `O=C(O)[C@@H]1CCCN1.O=C([O-])c1ccccc1O.[Li+]` [LISPRO], which “brain lithium levels compared with lithium carbonate or lithium salicylate” value [1] is on record?
Its value is “significantly higher brain lithium levels”.

And the “plasma lithium levels compared with lithium carbonate or lithium salicylate” value [1]?
Its value is “more steady plasma lithium levels”.

What about the “brain lithium levels compared with lithium carbonate or lithium salicylate” value [2] of the same molecule?
Its value is “significantly higher brain lithium levels”.

What about the “plasma lithium levels compared with lithium carbonate or lithium salicylate” value [2] of the same molecule?
The value was “more steady plasma lithium levels”.

And the AD-related behavioral impairment ([3]; AD mouse models)?
Its AD-related behavioral impairment is “reduced AD-related behavioral impairment”.

And the “AD pathology (β-amyloid plaques, tau hyperphosphorylation, neuroinflammation, neuronal and synaptic protein loss, GSK3β activity)” value [3, 13]?
The value was “reduced AD pathology”.

What about the renal inflammation [3, 13] of the same molecule?
The renal inflammation was “without eliciting renal inflammation”.

With `CC(C)CCC[C@@H](C)[C@H]1CC[C@H]2[C@@H]3CC=C4C[C@@H](OS(=O)(=O)O)CC[C@]4(C)[C@H]3CC[C@]12C` [cholesterol sulfate] as the molecule, how does the “rate of intermembrane exchange relative to cholesterol” value [4] read?
The value was “approximately 10 fold”.

What does the source list for `[Cl-].[Li+]` [LiCl, lithium chloride]?
maximal increase of pGSK3β ([5]; LiCl at 1.25 mM): 91%; concentration at which increase of pGSK3β starts [5]: 160 μM; maximal increase of pGSK3β ([6]; LiCl at 2.5 mM): 119%; concentration at which increase of pGSK3β starts [6]: 60 μM; extent of pGSK3β increase at 60 μM [7]: minimally; concentration levels at which pGSK3β increased ([7]; CHO and SH-SY5Y cells): high micromolar and low millimoloar levels; effect on total GSK3β levels ([7]; 18 h, CHO and SH-SY5Y cells): without altering; also recorded: neither LiCS, LiCl nor NaCS altered; concentration at which increase of pGSK3β starts [7]: 60 μM; maximal increase of pGSK3β ([7]; LiCl at 1.25 mM): approximately 100%; effect on ptau (Thr231) ([8]; LiCl at any dose between 60 μM and 1.25 mM, 18 h): not altered; also recorded: neither LiCl at any dose between 60 μM and 1.25 mM nor NaCS at any dose between 5 and 60 μM altered ptau; also recorded: ineffective even at millimolar levels; also recorded: failed to alter; effect on total tau levels ([8]; 18 h): neither LiCS, NaCS nor LiCl at any dose altered; concentration at which decrease of LPS-induced TNFα starts ([9]; BV2 cells): 5 mM; lithium levels in the brain [10, 14]: increased at 5 h; lithium levels in the kidney [10, 14]: increased at 0.5 and 5 h; also recorded: markedly increases; lithium levels in the liver [10, 14]: failed to increase at any time; autistic features (social interaction deficit, repetitive self-grooming, anxiety, depression) [11]: reversed autistic features

With `CC(C)CCC[C@@H](C)[C@H]1CC[C@H]2[C@@H]3CC=C4C[C@@H](OS(=O)(=O)[O-])CC[C@]4(C)[C@H]3CC[C@]12C.[Na+]` [NaCS, sodium cholesterol sulfate] as the molecule, how does the “effect on pGSK3β” value ([7]; NaCS at 5-90 μM, 18 h, CHO and SH-SY5Y cells, sulfate) read?
Its value is “did not alter; also recorded: failed to alter”.

What about the “effect on total GSK3β levels” value ([7]; 18 h, CHO and SH-SY5Y cells) of the same molecule?
Its value is “neither LiCS, LiCl nor NaCS altered”.

And the “effect on ptau (Thr231)” value ([8]; NaCS at any dose between 5 and 60 μM, 18 h, sulfate)?
Its value is “neither LiCl at any dose between 60 μM and 1.25 mM nor NaCS at any dose between 5 and 60 μM altered ptau”.

What about the “effect on ptau (Thr231)” value [8, 15] of the same molecule?
The value was “did not alter; also recorded: failed to alter”.

What about the “effect on total tau levels” value ([8]; 18 h, sulfate) of the same molecule?
Its value is “neither LiCS, NaCS nor LiCl at any dose altered”.

And the “effect on LPS-induced TNFα level” value ([9]; NaCS at any concentration between 20 and 80 μM)?
The value was “not altered”.

And the “effect on LPS-induced TNFα level” value [9, 15]?
Its value is “did not alter; also recorded: failed to alter”.

Which results are given for `CC(C)CCC[C@@H](C)[C@H]1CC[C@H]2[C@@H]3CC=C4C[C@@H](OS(=O)(=O)[O-])CC[C@]4(C)[C@H]3CC[C@]12C.[Li+]` [LiCS, lithium cholesterol sulfate]?
maximal increase of pGSK3β ([5]; LiCS at 60 μM): 92%; concentration at which increase of pGSK3β starts [5]: 10 μM; maximal increase of pGSK3β ([6]; LiCS at 90 μM): 90%; concentration at which increase of pGSK3β starts [6]: 10 μM; extent of pGSK3β increase at 60 μM [7]: maximally; concentration levels at which pGSK3β increased ([7]; CHO and SH-SY5Y cells): low micromolar levels; potency relative to LiCl in increasing inhibitory GSK3β (Ser9) phosphorylation ([7]; CHO and SH-SY5Y cells): 21-28 fold; effect on total GSK3β levels ([7]; 18 h, CHO and SH-SY5Y cells, sulfate): without altering; also recorded: neither LiCS, LiCl nor NaCS altered; potency compared with LiCl in increasing inhibitory GSK3β (Ser9) phosphorylation ([7]; both CHO and SH-SY5Y cells): more potent than LiCl; concentration at which increase of pGSK3β starts [7]: 10 μM; maximal increase of pGSK3β ([7]; LiCS at 60 μM): approximately 100%; concentration levels at which tau (Thr231) phosphorylation is reduced ([8]; HEK293/tau cells): at micromolar levels; concentration at which decrease of ptau (Thr231) starts ([8]; HEK293/tau cells, 18 h): 10 µM; maximal decrease of ptau (Thr231) ([8]; HEK293/tau cells, 18 h, LiCS at 40 μM): 63%; effect on total tau levels ([8]; 18 h, listed as UCS, sulfate): without altering; effect on total tau levels ([8]; 18 h, sulfate): neither LiCS, NaCS nor LiCl at any dose altered; effectiveness compared with LiCl in reducing microglial LPS-induced TNFα production ([9]; BV2 cells): more effective than LiCl; potency relative to LiCl for reducing LPS-induced TNFα production ([9]; BV2 cells): approximately 250 fold; concentration at which decrease of LPS-induced TNFα starts ([9]; BV2 cells): 0.02 mM; lithium levels in the liver [10, 14]: failed to increase at any time; lithium levels in the kidney ([10]; 0.04 mmol lithium/mouse p.o., 0.5 and 5 h after gavage, listed as UCS, sulfate): LiCl but not UCS treatment markedly increases; lithium levels in the kidney ([10]; 0.04 mmol lithium/mouse p.o., 0.5 and 5 h after gavage, sulfate): failed to increase at any time; lithium blood levels compared with LiCl oral treatment ([10]; oral treatment, mice): more stable and last longer; crossing of the blood-brain barrier ([10]; oral treatment, mice, compared with LiCl): more readily crosses the blood-brain barrier

Which “plasma lithium levels and elimination compared with lithium lactate” value [12] does the source give for `O=C([O-])c1ccccc1O.[Li+]` [lithium salicylate] here?
The value was “longer elevated plasma lithium levels with a slower elimination process”.
